Results on twelve compounds are retold here after patent US5238936A, “Trisubstituted triazines” (Adir et Compagnie, priority 1991, dated 1993).

Data set [1] deals with line DC-3F/AD. As to the kind of experiment: Flow cytometry: intracellular accumulation of adriamycin by cells of the line DC-3F/AD. It is filed as cell-based, Chinese hamster. Particulars: ADR 50 μM, 5 hours. The text has this: Also measured was the effect of the compounds on the intracellular concentration of the cytotoxic agent. In effect, the known compounds for reversing MDR act by increasing the intracellular concentration of cytotoxic agent. This effect is the consequence of inhibiting the action of gP 170 which is responsible for the efflux of the drug.
By measuring that fluorescence, it is thus possible to obtain a relative measurement of the intracellular concentration of ADR.
The cells 500×10^3 per ml were exposed simultaneously to ADR at a fixed concentration (50 μM) and to the tested compounds at various concentrations. After 5 hours' incubation, the intracellular accumulation of ADR was evaluated by FCM. […] The analysis of each of the samples was carried out on a total of 10,000 cells at a rate of 1,000 cells per second.
The results were presented in the form of linear histograms of the intracellular ADR fluorescence.
Expression of the results: for each of the histograms the mean fluorescence per channel (MEAN) was determined by the information system of the apparatus. For all experiments:
a negative control (cells without ADR) fixed the autofluorescence threshold.
a positive control (cells with ADR) determined the MEAN value=MN1.
the "test" tubes (cells with ADR and with compound) were used to determine, for each of the compounds and at each of the concentrations, the MEAN values=MN2.
The results are expressed in the form of variations from the mean fluorescence obtained for each of the "test" tubes (MN2) in relation to the mean fluorescence obtained with the positive control (MNl): VAR-MEAN=MN2-MN1. The parameter expressed is thus the increase in ADR fluorescence in the presence of the tested compounds.

The test system of data set [2] is line DC-3F/AD. Nature of the data set: Cytotoxicity (Microculture Tetrazolium Assay): reversal of resistance to actinomycin D, line DC-3F/AD. Type of data set: cell-based, Chinese hamster. The settings on record: 4 days. The text has this: The pharmacological study of the compounds of the present invention consisted first of all in an evaluation in vitro carried out on resistant cells. The parameter measured is the cytotoxicity of the antitumour drug, quantified in the absence and in the presence of the reversing compound.
The cells are distributed on microplates and exposed to the cytotoxic compounds (actinomycin D for line DC-3F/AD and adriamycin for line KB-Al) at 9 concentrations (2 by 2 series dilutions). The compounds tested for their capacity to reverse MDR are added at the same time as the cytotoxic agent.
The cells are then incubated for 4 days. […] The results are expressed as a reversion factor (RF): PG,29 [formula]

In the case of `C=CCNc1nc(NCC=C)nc(NCCN2CCC(NC3c4ccccc4CCc4ccccc43)CC2)n1` [Example 12, 2,4-diallylamino-6-{2-[4-(10,11-dihydro-5H-dibenzo[a,d]cyclohepten-5-ylamino)piperidin-1-yl]ethylamino}-1,3,5-triazine], the “VAR-MEAN (increase in ADR fluorescence), line DC-3F/AD” value in the data set on line DC-3F/AD [1] (1.0 μM compound) stood at 5.4; in the data set on line DC-3F/AD [1] (5.0 μM compound), 10.4; in the data set on line DC-3F/AD [1] (10 μM compound) it was 18.3; in the data set with line DC-3F/AD [1] ([…] compound) it was 10.3. For the same compound, the “Reversion factors (cytotoxicity) with the line DC-3F/AD” value (from here on “Reversion factors (cytotoxicity)”) with line DC-3F/AD [2] (0.5 μM compound) is given as 0.9; in the data set with line DC-3F/AD [2] (1 μM compound), 0.9; in the data set with line DC-3F/AD [2] (5 μM compound), 64.
`C=CCNc1nc(NCC=C)nc(N2CCC(NCC34CCC(c5ccccc53)c3ccccc34)CC2)n1` [Example 10, 2,4-diallylamino-6-{4-[(9,10-dihydro-9,10-ethanoanthracen-9-yl)methylamino]piperidin-1-yl}-1,3,5-triazine]: the “VAR-MEAN (increase in ADR fluorescence), line DC-3F/AD” value with line DC-3F/AD [1] (1.0 μM compound) is recorded as 12.3; with line DC-3F/AD [1] (5.0 μM compound), 20.2; in the data set with line DC-3F/AD [1] (10 μM compound), 30.7; in the data set on line DC-3F/AD [1] ([…] compound), 13.5. Also, the “Reversion factors (cytotoxicity)” value in the data set with line DC-3F/AD [2] (0.5 μM compound) is given as 1; with line DC-3F/AD [2] (1 μM compound) it was 1.9; in the data set on line DC-3F/AD [2] (5 μM compound) it was 96.
On to `CNc1nc(NC)nc(N2CCC(NCC3c4ccccc4CCc4ccccc43)CC2)n1` [Example 14, 2,4-dimethylamino-6-{4-[(10,11-dihydro-5H-dibenzo[a,d]cyclohepten-5-yl)methylamino]piperidin-1-yl}-1,3,5-triazine], for which the “VAR-MEAN (increase in ADR fluorescence), line DC-3F/AD” value was 12.3 in the data set with line DC-3F/AD [1] (1.0 μM compound), 29.4 with line DC-3F/AD [1] (5.0 μM compound), 30.6 in the data set with line DC-3F/AD [1] (10 μM compound) and 14.5 in the data set with line DC-3F/AD [1] ([…] compound). Besides, the “Reversion factors (cytotoxicity)” value with line DC-3F/AD [2] (0.5 μM compound) turned out to be 1.3; with line DC-3F/AD [2] (1 μM compound) it was 7.8; in the data set with line DC-3F/AD [2] (5 μM compound), 187.
As for `C=CCNc1nc(NCC=C)nc(N2CCC(NCC3c4ccccc4Oc4ccccc43)CC2)n1` [Example 9, 2,4-diallylamino-6-[4-(xanthen-9-ylmethylamino)-piperidin-1-yl]-1,3,5-triazine], the “VAR-MEAN (increase in ADR fluorescence), line DC-3F/AD” value turned out to be 13.4 with line DC-3F/AD [1] (1.0 μM compound), 19.4 with line DC-3F/AD [1] (5.0 μM compound), 25.7 with line DC-3F/AD [1] (10 μM compound) and 18.1 with line DC-3F/AD [1] ([…] compound). Further, the figures for the “Reversion factors (cytotoxicity)” value in the data set on line DC-3F/AD [2] (0.5 μM compound), with line DC-3F/AD [2] (1 μM compound) and in the data set with line DC-3F/AD [2] (5 μM compound) were 4.8, 39 and 844, respectively.
As to `C=CCNc1nc(NCC=C)nc(NCC(O)CN2CCC(NC3c4ccccc4CCc4ccccc43)CC2)n1` (centres unmarked) [Example 16, 2,4-diallylamino-6-{3-[4-(10,11-dihydro-5H-dibenzo[a,d]cyclohepten-5-ylamino)piperidin-1-yl]-2-hydroxypropylamino}-1,3,5-triazine], the “VAR-MEAN (increase in ADR fluorescence), line DC-3F/AD” value with line DC-3F/AD [1] (1.0 μM compound) is 9.9; in the data set on line DC-3F/AD [1] (5.0 μM compound) it was 10.4; in the data set on line DC-3F/AD [1] (10 μM compound), 12.9; in the data set with line DC-3F/AD [1] ([…] compound), 11.8. Further, the “Reversion factors (cytotoxicity)” value is given as 1 with line DC-3F/AD [2] (0.5 μM compound), 0.9 in the data set on line DC-3F/AD [2] (1 μM compound) and 1.8 in the data set with line DC-3F/AD [2] (5 μM compound).
Turning to `C=CCNc1nc(NCC=C)nc(NCC2CCN(CC3c4ccccc4CCc4ccccc43)CC2)n1` [Example 8, 2,4-diallylamino-6-{[1-[(10,11-dibenzo[a,d]cyclohepten-5-yl)methyl]piperidin-4-yl]methylamino}-1,3,5-triazine], the “VAR-MEAN (increase in ADR fluorescence), line DC-3F/AD” value with line DC-3F/AD [1] (1.0 μM compound) is listed as 1.3; in the data set with line DC-3F/AD [1] (5.0 μM compound), 19.3; with line DC-3F/AD [1] (10 μM compound) it was 21.0; in the data set with line DC-3F/AD [1] ([…] compound), 11.4. The results for the “Reversion factors (cytotoxicity)” value in the data set with line DC-3F/AD [2] (0.5 μM compound), in the data set on line DC-3F/AD [2] (1 μM compound) and with line DC-3F/AD [2] (5 μM compound) were 0.8, 1.6 and 353, respectively.
In the case of `C=CCNc1nc(NCC=C)nc(N2CCN(CC3c4ccccc4CCc4ccccc43)CC2)n1` [Example 25, 2,4-diallylamino-6-{4-[(10,11-dihydro-5H-dibenzo[a,d]cyclohepten-5-yl)methyl]piperazin-1-yl}-1,3,5-triazine], the “VAR-MEAN (increase in ADR fluorescence), line DC-3F/AD” value was determined as 9.9 in the data set with line DC-3F/AD [1] (1.0 μM compound), 17.6 in the data set on line DC-3F/AD [1] (5.0 μM compound), 24.5 in the data set on line DC-3F/AD [1] (10 μM compound) and 14.7 in the data set on line DC-3F/AD [1] ([…] compound). The “Reversion factors (cytotoxicity)” value came to 13 in the data set with line DC-3F/AD [2] (1 μM compound) and 464 in the data set with line DC-3F/AD [2] (5 μM compound).
As for `C=CCNc1nc(NCC=C)nc(NCCN2CCN(C3c4ccccc4CCc4ccccc43)CC2)n1` [Example 2, 2,4-Diallylamino-6-{2-[4-(10,11-dihydro-5H-dibenzo[a,d]cyclohepten-5-yl)piperazin-1-yl]ethylamino}-1,3,5-triazine], the “VAR-MEAN (increase in ADR fluorescence), line DC-3F/AD” value stood at 10.1 with line DC-3F/AD [1] (1.0 μM compound), 10.2 in the data set on line DC-3F/AD [1] (5.0 μM compound), 10.5 in the data set with line DC-3F/AD [1] (10 μM compound) and 14.7 with line DC-3F/AD [1] ([…] compound). The figures for the “Reversion factors (cytotoxicity)” value in the data set with line DC-3F/AD [2] (0.5 μM compound) and with line DC-3F/AD [2] (1 μM compound) were 0.8 and 1, respectively.
For the compound `C=CCNc1nc(NCC=C)nc(N2CCC(NCC3c4ccccc4NC(=O)c4ccccc43)CC2)n1` (racemic) [Example 27, 2,4-diallylamino-6-{4-[((R,S)-6,11-dihydro-dibenzo[b,e]-6-oxoazepin-11-yl)methylamino]piperidin-1-yl}-1,3,5-triazine], the “VAR-MEAN (increase in ADR fluorescence), line DC-3F/AD” value is recorded as 0.0 in the data set on line DC-3F/AD [1] (1.0 μM compound), 2.2 with line DC-3F/AD [1] (5.0 μM compound) and 0.0 in the data set on line DC-3F/AD [1] ([…] compound). Also, the figures for the “Reversion factors (cytotoxicity)” value in the data set with line DC-3F/AD [2] (1 μM compound) and with line DC-3F/AD [2] (5 μM compound) were 1.1 and 2.1, respectively.
In the case of `C=CCNc1nc(NCC=C)nc(NCC(O)CN2CCC(NCC3c4ccccc4CCc4ccccc43)CC2)n1` (centres unmarked) [Example 17, 2,4-diallylamino-6-{3-[4-(10,11-dihydro-5H-dibenzo[a,d]cyclohepten-5-ylmethylamino)piperidin-1-yl]-2-hydroxypropylamino}-1,3,5-triazine], the “VAR-MEAN (increase in ADR fluorescence), line DC-3F/AD” value in the data set on line DC-3F/AD [1] (1.0 μM compound) turned out to be 9.4; in the data set with line DC-3F/AD [1] (5.0 μM compound) it was 10.5; with line DC-3F/AD [1] (10 μM compound), 12.6; with line DC-3F/AD [1] ([…] compound), 11.0. Further, the “Reversion factors (cytotoxicity)” value in the data set on line DC-3F/AD [2] (0.5 μM compound) is 0.8; with line DC-3F/AD [2] (1 μM compound), 0.8; in the data set on line DC-3F/AD [2] (5 μM compound), 1.1.
`C=CCNc1nc(NCC=C)nc(N2CCC(NCC3c4ccccc4-c4ccccc43)CC2)n1` [Example 13, 2,4-diallylamino-6-{4-[(fluoren-9-yl)methylamino]piperidin-1-yl}-1,3,5-triazine]: the “VAR-MEAN (increase in ADR fluorescence), line DC-3F/AD” value in the data set with line DC-3F/AD [1] (1.0 μM compound) worked out at 8.1; in the data set on line DC-3F/AD [1] (5.0 μM compound) it was 19.6; with line DC-3F/AD [1] (10 μM compound), 23.2; in the data set with line DC-3F/AD [1] ([…] compound), 12.0. Moreover, the “Reversion factors (cytotoxicity)” value was 2.1 in the data set with line DC-3F/AD [2] (0.5 μM compound), 7.1 in the data set with line DC-3F/AD [2] (1 μM compound) and 170 in the data set with line DC-3F/AD [2] (5 μM compound).
On to `C=CCNc1nc(NCC=C)nc(N2CCN(NCC3c4ccccc4CCc4ccccc43)CC2)n1` [Example 24, 2,4-diallylamino-6-{4-[(10,11-dihydro-5H-dibenzo[a,d]cyclohepten-5-yl)methylamino]piperazin-1-yl}-1,3,5-triazine], for which the “VAR-MEAN (increase in ADR fluorescence), line DC-3F/AD” value stood at 12.8 in the data set on line DC-3F/AD [1] (1.0 μM compound), 21.1 in the data set on line DC-3F/AD [1] (5.0 μM compound), 28.2 in the data set with line DC-3F/AD [1] (10 μM compound) and 16.9 in the data set on line DC-3F/AD [1] ([…] compound). The results for the “Reversion factors (cytotoxicity)” value with line DC-3F/AD [2] (0.5 μM compound), with line DC-3F/AD [2] (1 μM compound) and in the data set on line DC-3F/AD [2] (5 μM compound) were 2.5, 14 and 329, respectively.
